Assays:
mutant p53 [1] = target: mutant p53 (Homo sapiens, UniProt P04637, P309S/R273H); test: Phosphorylation Western blot; type: cell-based; set-up: Phosphorylation of mutant p53 at Thr 55 and phosphorylation of MDM2 at Ser166 were found in SW480 cancer cells; endogenous in cells; host or cells: SW480; details: SW480 cells
Procedure: (§1) Proteins were extracted from cells and electrophoresed through 4-12% SDS-PAGE then transferred to PVDF membranes. The primary antibodies indicated in the figures were incubated with the transferred PVDF in blocking buffer at 4° C. overnight. Antibody binding was detected on PVDF with appropriate IRDye-secondary antibodies (LI-COR Biosciences, USA) by the ODYSSEY infrared imaging system.

RXF393 cells = test: Flow cytometry sub-G1 DNA content; type: cell-based, human; details: 50 μM, 8 hours
Procedure: (§2) Cells were treated with NSC59984 or other drugs. Seventy-two hours after treatment, the cells were fixed with ethanol and stained with Propidium Iodide (PI). The samples were then subjected to analysis by an Epics Elite flow cytometer to measure the DNA content of the stained cells.

normal cells = test: Flow cytometry sub-G1 DNA content; type: cell-based, human; details: 25 μM, 72 hr
Procedure: as §2

cancer cells [2] = test: Flow cytometry sub-G1 DNA content; type: cell-based, human; details: 72 hr
Procedure: as §2

[3] = tested on: MRC5 normal human fibroblast cells; test: Flow cytometry sub-G1 DNA content; type: cell-based; details: 50 μM, 72 hr
Procedure: as §2

[4] = tested on: Wi38 normal human fibroblast cells; test: Flow cytometry sub-G1 DNA content; type: cell-based; details: 50 μM, 72 hr
Procedure: as §2

PARP cleavage = test: Cleaved PARP Western blot; type: cell-based, human; details: for PARP cleavage: 30 hours
Procedure: as §1

[5] = tested on: cancer cell lines bearing different p53 mutations; test: CellTiter-Glo luminescent cell viability assay, cell line panel; type: cell-based, human; details: most cancer cells compared with normal cells, 72 hr
Procedure: (§3) Cells at a concentration of 5000 cells/well in 96-well plates were treated with NSC59984 or other drugs. At seventy-two hours after treatment, cells were mixed with an equal volume of CellTiter-Glo reagents (Promega, Madison, Wis.), following the manufacturer's protocol, and bioluminescence imaging was measured using the IVIS imager.

wild-type p53 = test: Wild-type p53 protein level Western blot; type: cell-based, human; details: 8 hr
Procedure: as §1

mutant p53 mRNA = test: Mutant p53 mRNA qRT-PCR; type: cell-based, human; details: SW480 cells, 3 hr or 16 hr, compared to DMSO control
Description: Total RNA was isolated from cells using RNeasy mini kit (Qiagen, USA) by the recommended protocol. Reverse transcription used SuperScript II first-strand synthesis system (Invitrogen, USA) with random primers. qRT-PCR reactions used SYBR green master mix with the Real-Time PCR Detection systems (Bio-Rad, USA). Primers for qRT-PCR are (forward) 5′-[…]-3′ (SEQ ID NO: 1) and (reverse) 5′-[…]-3′ (SEQ ID NO: 2) for p53, (forward) 5′-TGTCCGTCAGAACCCATG-3′ (SEQ ID NO: 3) and (reverse) 5′-[…]-3′ (SEQ ID NO: 4) for p21, (forward) 5′-[…]-3′ (SEQ ID NO: 5) and (reverse) 5′-[…]-3′ (SEQ ID NO: 6) for Puma, (forward) 5′-[…]-3′ (SEQ ID NO: 7) and (reverse) 5′-[…]-3′ (SEQ ID NO: 8) for Noxa, (forward) 5′-CTGGGCTACACTGAGCACC-3′ (SEQ ID NO: 9) and (reverse) 5′-[…]-3′ (SEQ ID NO: 10) for Gapdh. Target gene expression levels were normalized with Gapdh.

DLD-1 cells = test: CellTiter-Glo cell viability, DLD-1 with Ad-p73 or p73 knock-down; type: cell-based, human; details: for Combination index (CI): DLD-1
Procedure: as §3
Cells were infected with retrovirus containing the pSIREN-REtrpcQ retroviral vector recombinant with TAp73 RNAi. Cells were cultured with blasticidin for several weeks, and blasticidin-resistant clones were selected. Knock-down of p73 was detected by measuring p73 protein levels by Western blot with anti-p73 antibody (Bethyl laboratories Inc. USA).
Cells were infected with an adenovirus that expresses p73-beta (Ad-p73) or wild type p53 (Ad-p53) and cultured for 24 hr, as previously described (Huang C, et al., Cancer Biol Ther 2009; 8: 2186-93). Then, the infected cells were cultured in fresh medium and subjected to different treatments.
All results were obtained from triplicate experiments, unless other indicated. Statistical analyses were performed using PRISM4 Software (GraphPad Software, Inc., San Diego, Calif., USA), ANOVA and Student's t-test. Statistical significances were determined by p<0.05. Combination indices were calculated using the Chou-Talalay method with CalcuSyn software (biosoft).

cancer cells [6] = test: Colony formation assay; type: cell-based, human; details: treated 3 days, then drug-free medium two weeks
Procedure: Franken N A, et al., Nat Protoc 2006; 1: 2315-9). Cancer cells were plated at 500 cells/well on 6-well plate, and then treated with NSC59984 next day. At 3 days after NSC59984 treatment, cancer cells were cultured with drug-free complete medium for two weeks with fresh medium changed every 3 days. Cells were fixed with 10% formalin and stained with 0.05% crystal violet at the end of two weeks period of cell culture.

mutant p53 [7] = test: Ubiquitination of mutant p53 (immunoprecipitation); type: cell-based, human; details: cancer cells treated with NSC59984 and MG132, 16 hr
Procedure: Five hundred micrograms of cell lysate were incubated with 2 μg of antibody overnight at 4° C. Then, 25 μl of protein A-Sepharose beads were added to the lysates. The immunoprecipitated proteins were eluted from protein A-Sepharose beads by boiling with 2× sample buffer and subjected to SDS-PAGE.
as §1

CN1CCN(C(=O)/C=C/c2ccc([N+](=O)[O-])o2)CC1 [NSC59984, (E)-1-(4-methylpiperazin-1-yl)-3-(5-nitrofuran-2-yl)prop-2-en-1-one]
phosphorylation of mutant p53 (mutant p53 [1]): phosphorylated at Thr55 | Sub-G1 DNA content (RXF393 cells): 8.7% | sub-G1 DNA content increase (normal cells): not in normal cells | sub-G1 DNA content (cancer cells [2]; 25 μM): 26-56% | cells with sub-G1 content (cancer cells [2]; 50 μM): 55-93% | DNA content in Sub-G1 [3]: 30% | DNA content in Sub-G1 [4]: 12% | PARP cleavage (PARP cleavage; cancer cells, dose-dependent): increased | PARP cleavage (PARP cleavage; normal cells, same doses): not observed | NSC59984-induced PARP cleavage (PARP cleavage; p73 knock-down DLD-1 cells, 24 hours): partially abrogated | EC50 cell viability [5]: significantly lower | wild-type p53 protein (wild-type p53; HCT116 cancer cells, 25 and 50 μM): up-regulated | wild-type p53 protein (wild-type p53; MRC-5 normal cells, 50 μM): up-regulated | p53 mRNA (mutant p53 mRNA): not decreased | Combination index (CI) (DLD-1 cells; Ad-P73 dilution 1:1k, NSC59984 12 μM): 0.273 | Combination index (CI) (DLD-1 cells; Ad-P73 dilution 1:1k, NSC59984 25 μM): 0.12 | Combination index (CI) (DLD-1 cells; Ad-P73 dilution 1:1k, NSC59984 50 μM): 0.033 | Combination index (CI) (DLD-1 cells; Ad-P73 dilution 1:2k, NSC59984 12 μM): 0.357 | Combination index (CI) (DLD-1 cells; Ad-P73 dilution 1:2k, NSC59984 25 μM): 0.127 | Combination index (CI) (DLD-1 cells; Ad-P73 dilution 1:2k, NSC59984 50 μM): 0.039 | Combination index (CI) (DLD-1 cells; Ad-P73 dilution 1:4k, NSC59984 12 μM): 0.303 | Combination index (CI) (DLD-1 cells; Ad-P73 dilution 1:4k, NSC59984 25 μM): 0.121 | Combination index (CI) (DLD-1 cells; Ad-P73 dilution 1:4k, NSC59984 50 μM): 0.037 | Combination index (CI) (DLD-1 cells; Ad-P73 dilution 1:8k, NSC59984 12 μM): 0.319 | Combination index (CI) (DLD-1 cells; Ad-P73 dilution 1:8k, NSC59984 25 μM): 0.115 | Combination index (CI) (DLD-1 cells; Ad-P73 dilution 1:8k, NSC59984 50 μM): 0.036 | Combination index (CI) (DLD-1 cells; Ad-P73 dilution 1:16k, NSC59984 12 μM): 0.239 | Combination index (CI) (DLD-1 cells; Ad-P73 dilution 1:16k, NSC59984 25 μM): 0.098 | Combination index (CI) (DLD-1 cells; Ad-P73 dilution 1:16k, NSC59984 50 μM): 0.027 | Combination index (CI) (DLD-1 cells; Ad-P73 dilution 1:32k, NSC59984 12 μM): 0.636 | Combination index (CI) (DLD-1 cells; Ad-P73 dilution 1:32k, NSC59984 25 μM): 0.282 | Combination index (CI) (DLD-1 cells; Ad-P73 dilution 1:32k, NSC59984 50 μM): 0.078 | cell viability, combination with exogenous p73 (DLD-1 cells; DLD-1 cells infected with Ad-p73): synergized | cell viability (DLD-1 cells; p73 knock-down DLD-1 cells compared with DLD-1 cells, 72 hr): higher | colony numbers (cancer cells [6]): significantly reduced | ubiquitination of mutant p53 (mutant p53 [7]): increased ubiquitination

— patent publication US10322123B2, “Compound for anti-cancer therapy that acts by targeting GOF mutant P53 and stimulates P73 to restore the P53 pathway signaling” (The Penn State Research Foundation, priority 2014, dated 2019)
